Results on 1 substance are retold here after US10335365B2, “Bladder cancer specific ligand peptides” (The Regents of the University of California, priority 2009, dated 2019).

Entries after “also recorded” stand apart in the source; their conditions may differ. Positions of bridges follow the written chain, without caps; N, C: chain ends. Non-standard residues stand in square brackets, D forms with d. No end group written: not given here.

Assay [1] concerns normal canine bladder urothelial cells. In words: Whole cell binding assay of Example 2, normal canine urothelial cells. As to conditions: PLZ4 beads. Here is the method:
(§1) This experiment was repeated 3 times for cell lines. […] 5637 human bladder cancer cell line; b. […] The average diameter of the beads is 90 μm. […] This experiment was repeated for 3 times. (200×)
(§2) To determine the binding of PLZ4 to canine TCC cell lines, whole cell binding assay was performed. PLZ4 was synthesized on TentaGel S NH2 resin beads (Rapp Polymere Gmbh, Germany) (Pegram, et al., J Clin Oncol (1998) 16:2659-2671), and incubated with single suspensions of five different canine carcinoma cell lines including K9TCC-PU, K9TCC-PU-AxA, K9TCC-PU-In, K9TCC-PU-AxC, and K9TCC-PU-Nk (kindly provided by Deborah Knapp at Purdue University, West Lafayette, Ind., USA) at 10^6 cells/ml. The negative control was normal urothelial cells obtained from dogs that were euthanized due to non-bladder-related disorders. Human bladder cancer cell line, 5637 were served as the positive control. If PLZ4 bound to cells in suspension, then the bead surface was covered with cells. Over 95% of the bead surface was covered with 5637 and K9TCC cells (FIG. 7A-a and b, respectively).

In assay [2] the test system is 12 cell lines with different origins. In words: Whole cell bead binding assay, 12 cell lines of different origins. Also on record: species or system human.
The subject of assay [3] is bladder TCC cell lines 5637, T24 and TCCSUP. In words: Whole cell bead binding assay, bladder TCC cell lines. Further details: species or system human. As to conditions: peptide on OBOC beads; 5637, T24, TCCSUP. How it is done:
(§3) The beads were washed extensively with double-distilled water and phosphate-buffered saline (PBS) before screening. Bladder cancer cells and normal urothelial cells were detached from culture dishes with trypsin/EDTA or a Detach kit (PromoCell, Heidelberg, Germany), washed with their corresponding culture medium, resuspended at 10^6 cells/ml and incubated with OBOC beads in Petri dishes in a humidified CO2 incubator at 37° C. with shaking (60 rpm). Beads bound by cells appeared as rosettes with a central bead covered by a layer(s) of cells under a microscope. The positive beads were picked with a pipette under inverted microscope, treated with Quanidine HCl (8M, 20 min) to remove cells and proteins on beads surface, and underwent a second round of incubation with the same cells to confirm the binding. Only those beads with cell bindings at both rounds were sent for the amino acid sequencing as previously described (Peng, et al., Nat Chem Biol, (2006) 2: 381-389).
Whole cell bead binding assay was used to screen libraries for peptides that bind bladder cancer cell cultures (FIG. 1). Approximately 150,000 library beads (peptides) were screened against each of 4 bladder cancer cell lines (three transitional cell carcinoma (TCC) lines: T24, TCCSUP and 5637, and one squamous cell line SCaBER). […]

For assay [4], the system named is cells from the normal specimen of the same bladder. In words: Whole cell bead binding assay, cells from normal specimen of the same bladder. Also on record: species or system human. To be noted: beads coated with PLZ4; same cystectomy specimen. Here is the method: as §3
The cell surface molecules on established cell lines in culture may not be the same as those molecules on primary bladder cancer cells. It was assessed if PLZ4 could bind to bladder cancer cells from patients. Beads coated with PLZ4 could bind to primary bladder cancer cells from patients (FIGS. 3A and B). […] In one patient, both normal tissue and bladder cancer tissue from the same cystectomy specimen were available.

For assay [5], the system named is primary bladder cancer cells from patients. In words: Whole cell bead binding assay, primary bladder cancer cells from patients. Further details: species or system human. As to conditions: beads coated with PLZ4; fresh bladder cancer specimens. Here is the method: Four bladder cancer cell lines including 5637 (HTB-9), SCaBER, TCCSUP (HTB-5), and T24 (HTB-4) were purchased from the American Type Culture Collection (Manassas, Va.). The isolation, characterization and maintenance of normal urothelial cells was previously described in detail (Bagai, et al., J Biol Chem, (2002) 277: 23828-23837). Normal peripheral blood mononuclear cells were prepared by using the Ficoll-Paque gradient method from peripheral blood of healthy donors. Bladder cancer tissue obtained from cystectomy was cut into pieces, digested with collagenase at 37° C. for 1-2 hours per the manufacturer's protocol, and filtered through a 40-μm strainer to make single cell suspension. Tumor cells were then isolated with Ficoll-Paque gradient method (800 g, 30 min at 4° C.). Informed consent was obtained from each patient or healthy donor before specimens were collected.
The beads were washed extensively with double-distilled water and phosphate-buffered saline (PBS) before screening. […]
The cell surface molecules on established cell lines in culture may not be the same as those molecules on primary bladder cancer cells. It was assessed if PLZ4 could bind to bladder cancer cells from patients. […]

The test system of assay [6] is bladder cells from a dog with chronic cystitis. The experiment in a line: Whole cell binding assay of Example 2, chronic cystitis bladder cells. As to conditions: PLZ4 beads. Further details: species or system canine. Here is the method:
as §1, §2

Assay [7] relates to bladder lymphoid hyperplasia specimen. In words: Binding to canine bladder lymphoid hyperplasia specimen. As to conditions: data not shown.
Another assay concerns K9TCC-PU. The experiment in a line: Binding affinity by PLZ4-biotin / avidin-HRP on fixed K9TCC-PU cells. Further details: species or system canine. As to conditions: restated in b239 without cell line, read-out: Kd50. Here is the method:
FIG. 8A-B. Binding affinity and biological effects of PLZ4 against canine TCC cell lines. A. Binding affinity of PLZ4 against K9TCC-PU and K9TCC-PU-In. Twenty thousands of K9TCC-PU and K9TCC-PU-In were seeded in 96 well plates. After culture for 24 hours, cells were fixed and incubated with different concentrations of PLZ4-biotin for 1.5 hours following avidin-HRP for another 1 hour. Cells treated with avidin-HRP only were served as background control. The color was developed using TMB substrate and read by ELISA readers. The experiment was performed in triplicates and repeated for 3 times. The mean value of the 3 experiments were shown. B. Biological effects of PLZ4 on canine TCC cell lines. Ten thousand K9TCC-PU-In and K9TCC-PU cells were seeded in the 96 well plates and treated with increasing concentrations of PLZ4 or PBS for 2 days. The cell proliferation assay was assessed by WST-8 assay per manufacturer's protocol. Cells treated with PBS were used as 100% control. Each group was performed in triplicate, repeated for 3 times. Mean values at each concentration are presented.
To further quantify the binding affinity, K9TCC-PU and K9TCC-PU-In cells were seeded in 96 well plates, fixed, and incubated with increasing concentrations of PLZ4-biotin followed by avidin-HRP. […]

For assay [8], the system named is cells isolated from urine specimens of patients actively treated with BCG intravesical therapy. It is filed as binding, human. As to conditions: 4 consecutive patients with no evidence of bladder cancer.

For “cQDGRMGFc ([dC]QDGRMGF[dC]; disulfide 1-9 (inferred)) [PLZ4, bladder cancer-specific ligand peptide]”, the “binding to normal canine bladder urothelial cells” value in assay [1] is reported as “no cell binding”. The “binding to 12 cell lines with different origins” value in assay [2] is on record as “did not bind to 10 out of 12 cell lines; also recorded: only bought to one of 12”. For the same substance, the “binding to bladder TCC cell lines” value in assay [3] was “bound to all three bladder TCC cell lines”. For the same substance, the “binding to cells from the normal specimen of the same bladder” value in [4] is reported as “not to the cells from the normal specimen”. Further, the “binding to primary bladder cancer cells from patients” value in assay [5] is reported as “could bind to cells from all 5 fresh bladder cancer specimens”. In [6], the “binding to bladder cells from a dog with chronic cystitis” value is “no cell binding”. For the same substance, the “binding to a bladder lymphoid hyperplasia specimen” value in assay [7] is “not to a bladder lymphoid hyperplasia specimen”. For the same substance, the Kd in the assay on K9TCC-PU is 21.3 µM. The “binding to cells from urine of patients actively treated with BCG” value in [8] was “did not bind”.
